Where two headings read alike, the source gives them in different places.
Columns and labels:
[1] = Solubility of test articles in dosing vehicle 0.5% CMC; assay type: physicochemical; conditions: 0.5% CMC (carboxymethylcellulose)
[2] = target: T1, cloned hNav1.8 channels expressed in CHO cells (Homo sapiens, UniProt Q9Y5Y9); assay: Na+ channel blocking examination, automated whole-cell patch clamp (IonWorks Quattro); assay type: cell-based; conditions: for IC50: hNav1.8 in CHO cells; for block of hNav1.8 channels in the inactivated state, potency relative to control (lacosamide): in words
T1 construct: expressed in transfected cells
Procedure: Using an automated whole-cell patch-clamp approach, the in vitro effects of oligomer-containing compounds of the invention (synthesis described in Example 1) on cloned hNav1.8 channels expressed in CHO cells relative to control (lacosamide) were evaluated.
The procedures used in this experiment followed those set forth in Sheets et al. (2008) J Pharmacol Exp Ther 326(1):89-99. Briefly, automated patch clamp electrophysiological procedures were carried out in the IonWorks Quattro™ system (Molecular Devices Corporation, Union City Calif.). In preparation for a current recording session, intracellular solution (140 mM KCl, 5 mM MgCl2, 0.5 mM EGTA, 10 mM HEPES, 0.1 mg/mL amphotericin B) was loaded into the intracellular compartment of the Population Patch Clamp™ (PPC) planar electrode. CHO cells stably expressing the human Nav1.8 sodium channel subtype were suspended in HEPES-buffered physiological saline solution (137 mM NaCl, 4 mM KCl, 1.8 mM CaCl2, 1 mM MgCl2, 10 mM HEPES, 10 mM Glucose, pH adjusted to 7.4 with NaOH) and pipetted into the wells of the PPC planar electrode. After establishment of a whole-cell configuration (the perforated patch), membrane currents were recorded using patch clamp amplifier in the IonWorks Quattro™ system. Test article concentrations, loaded in a 384-well compound plate, were applied to naïve cells (one concentration per cell) via steel needles of a 48-channel pipettor. Each application consisted of addition of 6 μL of 2× concentrated test article solution to the total 12 μL final volume of the extracellular well of the PPC planar electrode. The PPC well contents were then mixed (three times) following addition of test article. All experiments were performed at ambient temperature.
Block of hNav1.8 sodium channel was measured using a stimulus voltage pattern shown in FIG. 1, and voltage potentials are indicated in Table 1. The pulse pattern was repeated twice (once before addition of test article and the other five minutes after test article addition). Peak current amplitudes were measured at three test pulses: TP1 (tonic block), TP11 (frequency-dependent block at 10 Hz), and TP12 (inactivated state block).
Data acquisition and analyses were performed using the IonWorks Quattro™ system operation software (version 2.0.2; Molecular Devices Corporation, Union City, Calif.). Inhibition potencies were estimated from concentration-response curves fitted using the Hill function: % Block=% VC+{(100−% VC)−(100−% VC)/[1+([Test]/IC50)^N]}, where [Test] is the concentration of test article, IC50 is the concentration of the test article producing half-maximal inhibition, N is the Hill coefficient, % VC is the percentage of the current run-down (the mean current inhibition at the vehicle control) and % Block is the percentage of ion channel current inhibited at each concentration of the test article.

[3] = tested on: formalin-induced paw licking in the mouse; assay: Pain model: formalin-induced paw licking in the mouse; assay type: in vivo; conditions: for formalin-induced paw licking compared to saline, Phase 2: dose 200, PO, Phase 2 (15-30 minutes); for mice sedated / mice with splayed posture: 200 mg/kg orally
Procedure: In the formalin-induced paw licking model, a test compound is administered via oral gavage (“PO”) followed in thirty minutes by the subcutaneous injection of formalin to a hind paw of a mouse. Subcutaneous injection of formalin first causes a pain-inducing mechanical injury (involving bradykinin and substance P) in the first five minutes (“Phase 1”) followed by a pain-inducing inflammatory response (involving bradykinin, histamine, serotonin and prostaglandins) occurring between 15-30 minutes (“Phase 2”) following the formalin injection. Both pain-inducing stimuli causes a characteristic “paw licking” response. The amount of time spent licking the formalin-injected paw is measured during Phase 1 and Phase 2. If the test article has relatively good pain reducing properties, a reduction in the time spent licking the formalin-injected paw is observed compared to the saline control group. […] By measuring a series of test articles, it is possible to understand each test article's pain reducing activity relative to each other.

[4] = test pulse TP1 (tonic block), 5 min after test article addition, read-out: IC50, type of block: Tonic
[5] = test pulse TP11 (frequency-dependent block at 10 Hz), read-out: IC50, type of block: 10 Hz
[6] = test pulse TP12 (inactivated state block), read-out: IC50, type of block: Inactivated state
[7] = 30 min before formalin, in words

T1 sequence (Q9Y5Y9 whole entry): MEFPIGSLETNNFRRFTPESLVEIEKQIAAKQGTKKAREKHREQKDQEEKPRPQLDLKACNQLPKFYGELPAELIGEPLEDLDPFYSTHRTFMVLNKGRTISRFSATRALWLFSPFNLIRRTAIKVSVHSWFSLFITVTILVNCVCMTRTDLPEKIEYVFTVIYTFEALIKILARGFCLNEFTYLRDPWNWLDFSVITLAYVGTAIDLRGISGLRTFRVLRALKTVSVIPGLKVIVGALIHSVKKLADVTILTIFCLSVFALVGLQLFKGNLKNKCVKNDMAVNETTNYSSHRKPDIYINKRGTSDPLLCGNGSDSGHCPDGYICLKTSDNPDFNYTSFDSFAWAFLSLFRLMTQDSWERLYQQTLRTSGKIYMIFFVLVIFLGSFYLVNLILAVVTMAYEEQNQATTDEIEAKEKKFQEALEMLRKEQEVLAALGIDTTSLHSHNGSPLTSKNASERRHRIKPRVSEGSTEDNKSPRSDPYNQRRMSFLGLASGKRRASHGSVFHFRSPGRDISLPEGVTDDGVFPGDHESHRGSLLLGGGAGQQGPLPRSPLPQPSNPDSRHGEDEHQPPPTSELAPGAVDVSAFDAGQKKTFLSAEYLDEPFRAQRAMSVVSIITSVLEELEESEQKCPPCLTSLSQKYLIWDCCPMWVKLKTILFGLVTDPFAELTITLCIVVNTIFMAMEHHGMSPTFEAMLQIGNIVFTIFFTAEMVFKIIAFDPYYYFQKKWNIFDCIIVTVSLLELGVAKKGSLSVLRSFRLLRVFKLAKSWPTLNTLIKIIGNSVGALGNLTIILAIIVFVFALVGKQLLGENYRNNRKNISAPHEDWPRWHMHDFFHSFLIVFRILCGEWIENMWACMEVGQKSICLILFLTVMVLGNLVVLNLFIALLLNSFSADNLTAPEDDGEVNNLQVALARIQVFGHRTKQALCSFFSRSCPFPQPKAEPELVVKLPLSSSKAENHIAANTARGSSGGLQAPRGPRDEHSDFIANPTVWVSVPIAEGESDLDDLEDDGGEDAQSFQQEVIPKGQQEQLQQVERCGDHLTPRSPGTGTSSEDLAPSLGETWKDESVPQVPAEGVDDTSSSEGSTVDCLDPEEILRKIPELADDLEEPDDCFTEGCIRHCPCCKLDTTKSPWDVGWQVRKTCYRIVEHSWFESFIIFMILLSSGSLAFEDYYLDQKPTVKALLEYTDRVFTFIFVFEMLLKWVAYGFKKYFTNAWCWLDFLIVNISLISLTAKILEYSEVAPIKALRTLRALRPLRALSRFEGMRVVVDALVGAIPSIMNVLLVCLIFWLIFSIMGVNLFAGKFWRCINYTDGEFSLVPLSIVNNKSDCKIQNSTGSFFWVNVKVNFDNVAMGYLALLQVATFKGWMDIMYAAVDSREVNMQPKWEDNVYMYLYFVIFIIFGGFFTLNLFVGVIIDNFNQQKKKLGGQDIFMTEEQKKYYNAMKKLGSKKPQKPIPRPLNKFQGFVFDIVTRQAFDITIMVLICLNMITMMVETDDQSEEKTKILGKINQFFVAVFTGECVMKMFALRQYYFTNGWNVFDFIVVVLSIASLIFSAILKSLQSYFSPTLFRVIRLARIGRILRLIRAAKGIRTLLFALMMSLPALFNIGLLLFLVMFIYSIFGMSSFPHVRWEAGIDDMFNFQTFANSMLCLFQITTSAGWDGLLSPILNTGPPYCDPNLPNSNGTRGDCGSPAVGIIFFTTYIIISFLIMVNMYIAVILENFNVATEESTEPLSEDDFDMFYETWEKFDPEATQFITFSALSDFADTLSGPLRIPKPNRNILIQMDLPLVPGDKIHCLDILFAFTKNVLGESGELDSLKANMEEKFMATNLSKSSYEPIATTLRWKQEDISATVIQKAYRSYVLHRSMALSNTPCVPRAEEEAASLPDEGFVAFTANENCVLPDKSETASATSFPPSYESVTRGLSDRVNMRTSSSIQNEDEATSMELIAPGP

Compound: COCCOC(=O)N[C@H](COC)C(=O)NCc1ccccc1 [(2R) N-benzyl-2-carboxy mPEG1 amino-3-methoxy propionamide]
- solubility in vehicle [1]: not readily soluble
- IC50 [2, 4]: > 300 µM
- IC50 [2, 5]: > 300 µM
- IC50 [2, 6]: 267 µM
- block of hNav1.8 channels in the inactivated state, potency relative to control (lacosamide) [2]: potency comparable to control

Compound: COCCOCCOC(=O)N[C@H](COC)C(=O)NCc1ccccc1 [(2R) N-benzyl-2-carboxy mPEG2 amino-3-methoxy propionamide]
- formalin-induced paw licking compared to saline, Phase 2 [3, 7]: showed a reduction
- IC50 [2, 4]: > 300 µM
- IC50 [2, 5]: > 300 µM
- IC50 [2, 6]: 166 µM
- block of hNav1.8 channels in the inactivated state, potency relative to control (lacosamide) [2]: potency comparable to control

Compound: COCCOCCOCCOC(=O)N[C@H](COC)C(=O)NCc1ccccc1 [(2R) N-benzyl-2-carboxy mPEG3 amino-3-methoxy propionamide]
- formalin-induced paw licking compared to saline, Phase 2 [3, 7]: showed a reduction
- IC50 [2, 4]: > 300 µM
- IC50 [2, 5]: > 300 µM
- IC50 [2, 6]: 239 µM
- block of hNav1.8 channels in the inactivated state, potency relative to control (lacosamide) [2]: potency comparable to control

Compound: COCCOCCOCCOCCOC(=O)N[C@H](COC)C(=O)NCc1ccccc1 [(2R) N-benzyl-2-carboxy mPEG4 amino-3-methoxy propionamide]
- formalin-induced paw licking compared to saline, Phase 2 [3, 7]: showed a reduction
- IC50 [2, 4]: > 300 µM
- IC50 [2, 5]: > 300 µM
- IC50 [2, 6]: > 300 µM

Compound: COCCOCCOCCOCCOCCOC(=O)N[C@H](COC)C(=O)NCc1ccccc1 [(2R) N-benzyl-2-carboxy mPEG5 amino-3-methoxy propionamide]
- formalin-induced paw licking compared to saline, Phase 2 [3, 7]: showed a reduction
- IC50 [2, 4]: > 300 µM
- IC50 [2, 5]: > 300 µM
- IC50 [2, 6]: > 300 µM

Compound: COCCOCCOCCOCCOCCOCCOC(=O)N[C@H](COC)C(=O)NCc1ccccc1 [(2R) N-benzyl-2-carboxy mPEG6 amino-3-methoxy propionamide]
- IC50 [2, 4]: > 300 µM
- IC50 [2, 5]: > 300 µM
- IC50 [2, 6]: > 300 µM

Compound: COCCOCCOCCOCCOCCOCCOCCOC(=O)N[C@H](COC)C(=O)NCc1ccccc1 [(2R) N-benzyl-2-carboxy mPEG7 amino-3-methoxy propionamide]
- IC50 [2, 4]: > 300 µM
- IC50 [2, 5]: > 300 µM
- IC50 [2, 6]: > 300 µM

Compound: COCCOCCOCCOCCOCCOCCOCCOCCOC(=O)N[C@H](COC)C(=O)NCc1ccccc1 [(2R) N-benzyl-2-carboxy mPEG8 amino-3-methoxy propionamide]
- IC50 [2, 4]: > 300 µM
- IC50 [2, 5]: > 300 µM
- IC50 [2, 6]: > 300 µM

Compound: COCCOCCOCCOCCOCCOCCOCCOCCOCCOC(=O)N[C@H](COC)C(=O)NCc1ccccc1 [(2R) N-benzyl-2-carboxy mPEG9 amino-3-methoxy propionamide]
- IC50 [2, 4]: > 300 µM
- IC50 [2, 5]: > 300 µM
- IC50 [2, 6]: > 300 µM

Compound: COC[C@@H](NC(C)=O)C(=O)NCc1ccccc1 [(R)—N-benzyl-2-acetamido-3-methoxy propionamide]
- solubility in vehicle [1]: not readily soluble
- formalin-induced paw licking time, Phase 1 ([3]; 200 mg/kg PO, 30 min before formalin, Phase 1 (first five minutes), in words): greatest reduction
- mice sedated ([3]; Phase 1): 5/7
- mice with splayed posture ([3]; Phase 1): 5/7
- mice sedated ([3]; Phase 2): 6/7
- mice with splayed posture ([3]; Phase 2): 7/7
- formalin-induced paw licking compared to saline, Phase 2 [3, 7]: greatest reduction
- IC50 ([2]; IC50, type of block: 10 Hz, test pulse TP11 (frequency-dependent block at 10 Hz)): > 300 µM
- IC50 ([2]; IC50, type of block: Inactivated state, test pulse TP12 (inactivated state block)): 278 µM
- IC50 ([2]; IC50, type of block: Tonic, test pulse TP1 (tonic block), 5 min after test article addition): > 300 µM
